Measurements as given in ChEMBL document CHEMBL1152372, “A stabilized demethoxyviridin derivative inhibits PI3 kinase” (Bioorg Med Chem Lett, 2009).

How the values were obtained:
[1] = target: Phosphatidylinositol 4,5-bisphosphate 3-kinase catalytic subunit alpha isoform (Homo sapiens, UniProt P42336); assay: Inhibition of PI3 kinase
[2] = Stability in PBS at pH 7.4 assessed as half life at 1.5 mM by HPLC; assay type: physicochemical; details: buffer, pH 7.4, 1500 µM
[3] = Stability in RPMI culture media assessed as half life at 1.5 mM by HPLC; assay type: physicochemical; details: 1500 µM
[4] = Stability in PBS at pH 7.4 assessed as half life at 1.5 mM by HPLC in presence of proline; assay type: physicochemical; details: buffer, pH 7.4, 1500 µM
[5] = Stability in PBS at pH 7.4 assessed as half life at 1.5 mM by HPLC in presence of NAc-lysine; assay type: physicochemical; details: buffer, pH 7.4, 1500 µM
[6] = Stability in PBS at pH 7.4 assessed as half life at 1.5 mM by HPLC in presence of glycine; assay type: physicochemical; details: buffer, pH 7.4, 1500 µM

Sequence of Phosphatidylinositol 4,5-bisphosphate 3-kinase catalytic subunit alpha isoform (P42336 whole entry, canonical isoform): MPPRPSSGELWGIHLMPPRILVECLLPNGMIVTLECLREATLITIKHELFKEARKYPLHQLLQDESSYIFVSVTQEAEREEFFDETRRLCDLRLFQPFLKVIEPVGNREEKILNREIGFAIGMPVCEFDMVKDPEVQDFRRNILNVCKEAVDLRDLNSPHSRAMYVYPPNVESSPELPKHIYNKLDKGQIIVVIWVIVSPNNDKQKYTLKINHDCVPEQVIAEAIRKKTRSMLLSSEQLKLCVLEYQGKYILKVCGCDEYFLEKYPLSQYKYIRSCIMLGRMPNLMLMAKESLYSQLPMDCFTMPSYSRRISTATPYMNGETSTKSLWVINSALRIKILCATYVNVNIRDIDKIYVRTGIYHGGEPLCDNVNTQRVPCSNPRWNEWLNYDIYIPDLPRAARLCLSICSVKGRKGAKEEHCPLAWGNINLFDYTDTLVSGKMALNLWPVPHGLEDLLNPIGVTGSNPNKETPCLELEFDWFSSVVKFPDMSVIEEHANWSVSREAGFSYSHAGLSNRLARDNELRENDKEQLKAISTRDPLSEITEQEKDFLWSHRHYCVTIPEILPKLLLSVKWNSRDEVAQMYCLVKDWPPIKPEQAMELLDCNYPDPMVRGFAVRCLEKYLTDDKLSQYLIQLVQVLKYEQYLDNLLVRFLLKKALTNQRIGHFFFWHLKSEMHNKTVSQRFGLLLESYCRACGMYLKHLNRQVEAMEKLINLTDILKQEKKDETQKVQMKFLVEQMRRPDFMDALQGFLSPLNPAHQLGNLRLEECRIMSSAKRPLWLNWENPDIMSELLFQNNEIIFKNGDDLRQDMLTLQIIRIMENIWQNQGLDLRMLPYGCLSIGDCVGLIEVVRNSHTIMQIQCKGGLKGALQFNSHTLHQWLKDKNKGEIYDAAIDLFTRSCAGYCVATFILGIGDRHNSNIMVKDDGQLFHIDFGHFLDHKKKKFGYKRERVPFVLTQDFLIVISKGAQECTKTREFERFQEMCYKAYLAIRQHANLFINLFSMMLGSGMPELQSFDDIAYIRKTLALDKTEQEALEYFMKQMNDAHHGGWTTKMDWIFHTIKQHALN

Structure (SMILES) | IC50 [1] [nM] | t1/2 [2] [h] | t1/2 [3] [min] | t1/2 [4] [min] | t1/2 [5] [min] | t1/2 [6] [min]
COC[C@H]1OC(=O)/C(=C\NCCCCC(NC(C)=O)C(=O)O)C2=C(O)C(=O)C3=C([C@H](OC(C)=O)C[C@]4(C)C(=O)CC[C@@H]34)[C@]21C (stereo partly drawn) | > 1000 | – | – | – | – | –
COC[C@H]1OC(=O)/C(=C\N2CCCC2C(=O)O)C2=C(O)C(=O)C3=C([C@H](OC(C)=O)C[C@]4(C)C(=O)CC[C@@H]34)[C@]21C (stereo partly drawn) | 68 | – | – | – | – | –
C[C@]12C(=C(O)C(=O)c3c1ccc1c3CCC1=O)/C(=C/NCC(=O)O)C(=O)C[C@H]2OC(=O)CCC(=O)O | – | 3.63 | 64 | 126 | 94 | –
C[C@@]12c3ccc4c(c3C(=O)c3occ(c31)C(=O)C[C@H]2OC(=O)CCC(=O)O)CCC4=O | 20 | 2 | 0.43 | 108 | 23 | 13.5
C[C@@]12c3ccc4c(c3C(=O)c3occ(c31)C(=O)C[C@H]2O)CCC4=O [DEMETHOXYVIRIDIN] | 1 | 0.433 | 0.47 | 0.59 | 0.61 | 0.99
COC[C@H]1OC(=O)c2coc3c2[C@@]1(C)C1=C(C3=O)[C@@H]2CCC(=O)[C@@]2(C)C[C@H]1OC(C)=O [WORTMANNIN] | – | 57.83 | 0.99 | 1.5 | 18.4 | 4.1
